The values that follow come from patent publication US20230310452A1, “BROMODOMAIN AND EXTRA TERMINAL DOMAIN (BET) INHIBITOR COMPOSITIONS AND METHODS THEREOF FOR USE AS ANTI-AGING AGENTS” (MDI Biological Laboratory, priority 2020, published 2023).

Series [1] has as its system CGI- gene expression. Put plainly: CGI- gene expression upon treatment with BET inhibitors other than JQ1 in cell lines/tissues (FIG. 14). The note with it: indicated cell lines/tissues, concentrations, durations, vs untreated controls. The class given is cell-based. The text has this: Moreover, the cell line or tissue used in the BET inhibitor treatment, as well as treatment duration and concentration were also provided.

Another series has as its system BET. The settings on record: cited from earlier work.
A further series deals with CGI- genes / CGI+ genes. Put plainly: Gene expression changes upon JQ1 treatment versus untreated controls (FIGS. 12A-12C). The class given is cell-based. From the text: (§1) FIG. 12 illustrates JQ1 treatment suppresses CGI- gene misexpression. FIGS. 12A-12B show gene expression changes upon JQ1 treatment. […] All data are from the comparison of JQ1 treated with untreated controls for CGI+ genes (upper) and CGI- genes (lower) for each cell type. TAC: transverse aortic constriction. […] Representative data from three blind tests with similar results are shown. The control (Con) curve is to the left of the JQ1 treatment curve from 12-19 days post treatment.
BET family proteins (e.g., BRD2/4) are also components of local enhancer mediated transcriptional activation (FIG. 11A).
(§2) The effects of JQ1 on C. elegans lifespan was also tested. […] Treatment with BET inhibitors can suppress misexpression of CGI- genes during aging, and that this, in turn, will delay age-associated degenerative changes in mice.

The subject of another series is C. elegans. Put plainly: C. elegans lifespan after one-time JQ1 treatment (FIG. 12D). The class given is in vivo. The settings on record: representative of three blind tests.
Description: as §1, §2

In series [2] the test system is CGI- gene expression. Briefly: JQ1 in vivo treatment of mice, published RNA-seq data, CGI- gene expression (FIG. 13). The settings on record: intraperitoneal injections of 50 mg/kg/day, vs untreated controls. The method, then: FIG. 13 illustrates JQ1 in vivo treatment data based on published RNA-seq data generated from mice by intraperitoneal injections of 50 mg/kg/day as indicated. All data are from the comparison with untreated controls for CGI+ genes (upper) and CGI- genes (lower) for each of *p < 0.05; **p < 0.01, ***p< 0.001. Sham operation; transverse aortic constriction (TAC); myocardial infarction (MI).
All of the data were based on published RNA-seq data and compared to untreated controls for CGI+ and CGI- genes.

For series [3] the following is noted: cited from earlier work.

Entries after “also recorded” stand apart in the source; their conditions may differ.

On to `COc1nnc2ccc(N3CCC(c4ccc(OCCN5CCN(C)C(=O)[C@H]5C)cc4)CC3)nn12` [AZD 5153, (R)-4-(2-(4-(1-(3-methoxy-[1,2,4]triazolo[4,3-b]pyridazin-6-yl)piperidin-4-yl)phenoxy)ethyl)-1,3-dimethylpiperazin-2-one], for which, in the series with CGI- gene expression [1], the “CGI- gene expression upon BET inhibitors other than JQ1” value is reported as “suppress Cytosine-phosphate-Guanine (CpG) island negative genes”.

As to `Oc1ccc(C=Cc2cc(O)cc(O)c2)cc1` [resveratrol], the pan-BET inhibitor activity entry with BET is listed as “pan-BET inhibitor activity”. With `COc1cc(-c2cn(C)c(=O)c3cnccc23)cc(OC)c1CN(C)CC(=O)NCCOCCOCCNc1cccc2c1C(=O)N(C1CCC(=O)NC1=O)C2=O.Cl.Cl` (centres unmarked) [dBRD9, 2-[[[4-(1,2-Dihydro-2-methyl-1-oxo-2,7-naphthyridin-4-yl)-2-6-dimethoxyphenyl]methyl]methylamino]-N-[2-[2-[2-[[2-(2,6-dioxo-3-piperidinyl)-2,3-dihydro-1,3-dioxo-1H-isoindol-4-yl]amino]ethoxy]ethoxy]ethyl] acetamide dihydrochloride], the “CGI- gene expression upon BET inhibitors other than JQ1” value in the series on CGI- gene expression [1] is listed as “suppress Cytosine-phosphate-Guanine (CpG) island negative genes”. On the same count and under the same terms, in the case of `CCS(=O)(=O)Nc1ccc(Oc2ccc(F)cc2F)c(-c2cn(C)c(=O)c3[nH]ccc23)c1` [ABBV-075, N-(4-(2,4-difluorophenoxy)-3-(6-methyl-7-oxo-6,7-dihydro-1H-pyrrolo[2,3-c]pyridin-4-yl)phenyl)ethanesulfonamide] it was “suppress Cytosine-phosphate-Guanine (CpG) island negative genes”.

Consider `Cc1sc2c(c1C)C(c1ccc(Cl)cc1)=N[C@@H](CC(=O)OC(C)(C)C)c1nnc(C)n1-2` [JQ1, tert-butyl (S)-2-(4-(4-chlorophenyl)-2,3,9-trimethyl-6H-thieno[3,2-f][1,2,4]triazolo[4,3-a][1,4]diazepin-6-yl)acetate], for which the “overlap of CGI- genes downregulated by JQ1 with CGI- genes upregulated during aging or upon nuclear architecture disruption” value with CGI- genes / CGI+ genes (FIG. 12C) is given as “largely overlapped”. In the series with CGI- genes / CGI+ genes (JQ1 treated vs untreated controls, each cell type, FIGS. 12A-12B), the “CGI- gene expression upon JQ1 treatment” value is given as “global downregulation of CGI- gene expression; also recorded: suppresses CGI- gene expression”. Besides, the “CGI+ gene expression upon JQ1 treatment” value with CGI- genes / CGI+ genes (JQ1 treated vs untreated controls, FIGS. 12A-12B) was “not significantly affected”. Moreover, in the series with C. elegans, the “median lifespan of adult C. elegans” value is “significantly extended the median lifespan; also recorded: lifespan extension”. In addition, in the series on CGI- gene expression [2], the “CGI- gene expression in mice” value is on record as “suppression of CGI- gene expression”. The safety for humans result in series [3] is given as “safe for humans”. Turning to `Cc1noc(C)c1-c1cnc2c(-c3ccc(C(=O)O)cc3)cn([C@@H](C)c3ccccn3)c2c1` [PLX51107, (S)-4-(6-(3,5-dimethylisoxazol-4-yl)-1-(1-(pyridin-2-yl)ethyl)-1H-pyrrolo[3,2-b]pyridin-3-yl)benzoic acid], the “CGI- gene expression upon BET inhibitors other than JQ1” value in the series on CGI- gene expression [1] is listed as “suppress Cytosine-phosphate-Guanine (CpG) island negative genes”.

On to `CCNC(=O)c1cc2c(-c3cc(C(C)(C)O)ccc3Oc3c(C)cc(F)cc3C)cn(C)c(=O)c2[nH]1` [ABBV-744, N-ethyl-4-(2-(4-fluoro-2,6-dimethylphenoxy)-5-(2-hydroxypropan-2-yl)phenyl)-6-methyl-7-oxo-6,7-dihydro-1H-pyrrolo[2,3-c]pyridine-2-carboxamide], for which the “CGI- gene expression upon BET inhibitors other than JQ1” value in the series with CGI- gene expression [1] is recorded as “suppress Cytosine-phosphate-Guanine (CpG) island negative genes”. Consider `Cc1sc2c(c1C)C(c1ccc(Cl)cc1)=N[C@@H](CC(=O)NCCCCCCCCCCNC(=O)C[C@@H]1N=C(c3ccc(Cl)cc3)c3c(sc(C)c3C)-n3c(C)nnc31)c1nnc(C)n1-2` [MS645, (S)-N,N′-(decane-1,10-diyl)bis(2-((6S)-4-(4-chlorophenyl)-2,3,9-trimethyl-6H-thieno[3,2-f] [1,2,4]triazolo[4,3-a][1,4]diazepin-6-yl)acetamide)], for which the “CGI- gene expression upon BET inhibitors other than JQ1” value in the series with CGI- gene expression [1] is reported as “suppress Cytosine-phosphate-Guanine (CpG) island negative genes”.

`COC(=O)C[C@@H]1N=C(c2ccc(Cl)cc2)c2c(sc(C)c2C)-n2c(C)nnc21` [MS417, methyl (S)-2-(4-(4-chlorophenyl)-2,3,9-trimethyl-6H-thieno[3,2-f][1,2,4]triazolo[4,3-a][1,4]diazepin-6-yl)acetate]: in the series with CGI- gene expression [1], the “CGI- gene expression upon BET inhibitors other than JQ1” value is on record as “suppress Cytosine-phosphate-Guanine (CpG) island negative genes”. As for `COc1cc2c(cc1-c1c(C)noc1C)ncc1[nH]c(=O)n([C@H](C)c3ccccn3)c12` [I-BET 151, (R)-7-(3,5-dimethylisoxazol-4-yl)-8-methoxy-1-(1-(pyridin-2-yl)ethyl)-1,3-dihydro-2H-imidazo[4,5-c]quinolin-2-one], in the series on CGI- gene expression [1], the “CGI- gene expression upon BET inhibitors other than JQ1” value is reported as “suppress Cytosine-phosphate-Guanine (CpG) island negative genes”. Same read-out and setting: as for `Cc1sc2c(c1C)C(c1ccc(Cl)cc1)=N[C@@H](CC(N)=O)c1nnc(C)n1-2` [CPI-203, (S)-2-(4-(4-chlorophenyl)-2,3,9-trimethyl-6H-thieno[3,2-f][1,2,4]triazolo [4,3-a][1,4]diazepin-6-yl)acetamide], the entry is “suppress Cytosine-phosphate-Guanine (CpG) island negative genes”. On the same count and under the same terms, in the case of `Cc1sc2c(c1C)C(c1ccc(Cl)cc1)=N[C@@H](CC(=O)Nc1ccc(OCCOCCOCCOCCNc3cccc4c3C(=O)N(C3CCC(=O)NC3=O)C4=O)cc1)c1nnc(C)n1-2` (stereo partly drawn) [ARV-825, 2-((S)-4-(4-chlorophenyl)-2,3,9-trimethyl-6H-thieno[3,2-f][1,2,4]triazolo [4,3-a][1,4]diazepin-6-yl)-N-(4-(2-(2-(2-(2-((2-(2,6-dioxopiperidin-3-yl)-1,3-dioxoisoindolin-4-yl)amino)ethoxy)ethoxy)ethoxy)ethoxy)phenyl)acetamide] it was “suppress Cytosine-phosphate-Guanine (CpG) island negative genes”.
